Data on 1 substance can be found in patent US20090227533A1, “miR-34 Regulated Genes and Pathways as Targets for Therapeutic Intervention” (priority 2007, published 2009).

Series [1] has as its system basal cell carcinoma cells (TE354T). Particulars: cited from earlier work.
Series [2] deals with normal human T cells. The settings on record: cited from earlier work.
Series [3] relates to H460 non-small cell lung cancer xenografts. The series can be described thus: Tumor growth of human lung cancer xenografts, intratumoral injection. Format: in vivo, NOD/SCID mice. From the text: The inventors assessed the growth-inhibitory activity of hsa-miR-34a in human lung cancer xenografts grown in immunodeficient mice. Each 3×10^6 human H460 non-small cell lung cancer cells were mixed with BD Matrigel™, (BD Biosciences; San Jose, Calif., USA; cat. no. 356237) in a 1:1 ratio and subcutaneously injected into the lower back of 23 NOD/SCID mice (Charles River Laboratories, Inc.; Wilmington, Mass., USA). Once animals developed palpable tumors (day 11 post xenograft implantation), a group of six animals received intratumoral injections of each 6.25 μg hsa-miR-34a (Dharmacon, Lafayette, Colo.) formulated with the lipid-based siPORT™ amine delivery agent (Ambion, Austin, Tex.; cat. no. AM4502) on days 11, 14, and 17. A control group of six animals received intratumoral injections of each 6.25 μg negative control miRNA (NC; Dharmacon, Lafayette, Colo.), following the same injection schedule that was used for hsa-miR-34a. Given an average mouse weight of 20 g, this dose equals 0.3125 mg/kg. […] Caliper measurements were taken every 1-2 days, and tumor volumes were calculated using the formula, Volume=length×width×width/2, in which the length is greater than the width. Average tumor volumes, standard deviations and p-values were calculated and plotted over time (FIG. 4).

Series [4] has as its system Jurkat. Particulars: cited from earlier work.
The subject of series [5] is H226 lung cancer cells. Description: Long-term growth curve with repeated electroporation. Format: cell-based, human. Particulars: day 31, relative to control cells (100%). How it is done: To evaluate the therapeutic activity of hsa-miR-34a over an extended period of time, the inventors conducted growth curve experiments in the presence of miRNA for up to 31 days in H226 lung cancer cells. Since in vitro transfections of naked interfering RNAs, such as synthetic miRNA, are transient by nature and compromised by the dilution of the oligo during ongoing cell divisions, miRNA was administered at multiple time points (Bartlett et al., 2006; Bartlett et al., 2007). To accommodate miRNA delivery into a large quantity of cells, hsa-miR-34a or negative control miRNA were delivered by the electroporation method. Briefly, 1×10^6H226 were electroporated in triplicate with 1.6 μM hsa-miR-34a or negative control using the BioRad Gene Pulser Xcell™ instrument (BioRad Laboratories Inc., Hercules, Calif., USA), seeded and propagated in regular growth medium. When the control cells reached confluence (days 6, 17 and 25), cells were harvested, counted and electroporated again with the respective miRNAs. […] The population doubling was calculated from these electroporation events using the formula PD=ln(Nf/N0)/ln 2 and adjusting for the fact that approximately 72% of newly seeded cells adhere to the plate. […]

Series [6] relates to PC3 prostate cancer cells. The series is described as above. Format: cell-based, human. How it is done:
(§1) To evaluate the therapeutic activity of hsa-miR-34a over an extended period of time, we conducted growth curve experiments in the presence of miRNA for up to 22 days. Since in vitro transfections of naked interfering RNAs, such as synthetic miRNA, are transient by nature and compromised by the dilution of the oligo during ongoing cell divisions, miRNA was administered at multiple time points (Bartlett et al. 2006; Bartlett et al. 2007). To accommodate miRNA delivery into a large quantity of cells, the inventors employed the electroporation method to deliver hsa-miR-34a or negative control miRNA into PPC-1, PC3, and Du145 human prostate cancer cells. Briefly, 1×10^6 PPC-1 or PC3 cells, or 0.5×10^6 Du145 cells were electroporated with 1.6 μM hsa-miR-34a or negative control using the BioRad Gene Pulser Xcell™ instrument (BioRad Laboratories Inc., Hercules, Calif., USA), seeded and propagated in regular growth medium. Experiments with PC3 and Du145 cells were carried out in triplicates. When the control cells reached confluence (days 4 and 11 for PPC-1; days 7 and 14 for PC3 and Du145), cells were harvested, counted and electroporated again with the respective miRNAs. To ensure similar treatment of both conditions as well as to accommodate exponential growth, the cell numbers used for the second and third electroporation were titrated down to the lowest count. The population doubling was calculated from these electroporation events using the formula PD=ln(Nf/N0)/ln 2 and adjusting for the fact that approximately 72% of newly seeded cells adhere to the plate. Cell counts were extrapolated and plotted on a linear scale (FIG. 6). Arrows represent electroporation days. Standard deviations are included in the graphs.

For series [7], the system named is Du145 prostate cancer cells. Described as above. Type of series: cell-based, human. How it is done: as §1
Series [8] relates to PPC-1 prostate cancer cells. Described as above. Type of series: cell-based, human. The settings on record: by day 22; 1.6 μM electroporated repeatedly. How it is done: as §1

Take “hsa-miR-34a: synthetic miRNA; mature sequence UGGCAGUGUCUUAGCUGGUUGUU (MIMAT0000255; SEQ ID NO:1) (synthetic miRNA, chemistry not given here)”: the values for the proliferation entry in series [1] and in series [2] were “inhibits the proliferation” and “no anti-proliferative effect”, respectively. The average tumor volume in series [3] (day 19, 6.25 μg intratumoral in siPORT amine on days 11, 14, 17, n=6) is given as 196 mm^3. In addition, in series [3] (three intratumoral doses), the “growth of established H460 lung tumors” value is recorded as “robustly inhibited growth”. Besides, the “programmed cell death (apoptosis)” value in series [4] was “increased”. For the same substance, the “inhibition of H226 cell growth” value in series [5] (1.6 μM electroporated on days 0, 6, 17, 25) came to 94.9%. The substance further had a remaining cells in series [5] of 5.1%. Also, the “cells relative to cells electroporated with negative control miRNA” value in series [6] (PC3, day 21) was determined as 2.8%; in series [7] (Du145, day 19) it was 6.9%. Further, in series [6] (day 21, 1.6 μM electroporated repeatedly, relative to control cells (100%)), the “inhibition of PC3 cell growth” value came to 97.2%. The “inhibition of Du145 cell growth” value in series [7] (day 19, 1.6 μM electroporated repeatedly, relative to control cells (100%)) turned out to be 93.1%. Also, the “fate of PPC-1 cells in long-term culture” value in series [8] is given as “eliminated”.
